{"source": "patent US6586596B2", "about": "“Acetylcholine enhancers” (priority 1998, dated 2003)", "key": {"Cynomologous monkeys": {"system": "Cynomologous monkeys", "assay": "Hepatotoxic analysis, four-week oral study; on Clinical signs vomiting: key: − no remarkable change; ↑ increase; ↓ decrease; + slight; ++ severe (diarrhea)", "format": "in vivo", "conditions": "oral; for Clinical signs vomiting: four weeks (10, 5, 10 mg/kg/day regimens)", "method": "During the testing period, these animals were dosed with three different regimens: first, animals were dosed with 10 mg/kg/day for 7 days, followed by 32 days-washout period, second, animals were dosed with 5 mg/kg/day for 14 days, and thereafter the animals were dosed with 10 mg/kg/day for 7 days. The following parameters were examined: body weight, clinical signs, food consumption, blood biochemistry (GOT, GPT, ALP, LDH, γ-GTP, ChE, Bil, T.Pro, Alb, A/G ratio, T.Cho, NEFA, TG)."}, "AChE": {"target": "T1, AChE (Rattus norvegicus, UniProt P37136)", "T1 construct": "from tissue; host or cells: rat brain (hippocampus, striatum, frontal cortex, parietal cortex)", "T1 sequence (P37136 32-614)": "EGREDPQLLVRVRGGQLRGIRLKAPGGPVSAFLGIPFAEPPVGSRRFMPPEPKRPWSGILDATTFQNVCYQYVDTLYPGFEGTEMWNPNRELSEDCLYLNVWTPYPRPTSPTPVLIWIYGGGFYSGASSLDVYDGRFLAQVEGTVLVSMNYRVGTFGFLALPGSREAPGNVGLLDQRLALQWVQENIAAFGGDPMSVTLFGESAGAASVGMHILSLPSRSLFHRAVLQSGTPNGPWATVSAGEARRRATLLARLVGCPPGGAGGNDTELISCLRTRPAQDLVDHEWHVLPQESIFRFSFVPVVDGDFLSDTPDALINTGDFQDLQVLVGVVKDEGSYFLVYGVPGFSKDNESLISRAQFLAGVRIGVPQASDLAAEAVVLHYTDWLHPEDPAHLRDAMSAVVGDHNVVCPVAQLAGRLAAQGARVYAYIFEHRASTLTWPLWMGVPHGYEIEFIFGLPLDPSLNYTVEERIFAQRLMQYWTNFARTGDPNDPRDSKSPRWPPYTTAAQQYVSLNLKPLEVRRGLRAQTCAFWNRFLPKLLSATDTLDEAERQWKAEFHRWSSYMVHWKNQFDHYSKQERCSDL", "format": "in vivo", "conditions": "1 hour after dosing", "method": "After 1 hour, rats were sacrificed and brains were isolated and divided into several portions. AChE activity in preparations from hippocampus, striatum, frontal cortex and parietal cortex was determined by Ellman's method."}, "5-HT3 receptor": {"target": "T2, 5-HT3 receptor (Mus musculus, UniProt P23979)", "T2 construct": "The receptor source was NIE-115 cells; host or cells: NIE-115 cells", "T2 sequence (P23979 24-489)": "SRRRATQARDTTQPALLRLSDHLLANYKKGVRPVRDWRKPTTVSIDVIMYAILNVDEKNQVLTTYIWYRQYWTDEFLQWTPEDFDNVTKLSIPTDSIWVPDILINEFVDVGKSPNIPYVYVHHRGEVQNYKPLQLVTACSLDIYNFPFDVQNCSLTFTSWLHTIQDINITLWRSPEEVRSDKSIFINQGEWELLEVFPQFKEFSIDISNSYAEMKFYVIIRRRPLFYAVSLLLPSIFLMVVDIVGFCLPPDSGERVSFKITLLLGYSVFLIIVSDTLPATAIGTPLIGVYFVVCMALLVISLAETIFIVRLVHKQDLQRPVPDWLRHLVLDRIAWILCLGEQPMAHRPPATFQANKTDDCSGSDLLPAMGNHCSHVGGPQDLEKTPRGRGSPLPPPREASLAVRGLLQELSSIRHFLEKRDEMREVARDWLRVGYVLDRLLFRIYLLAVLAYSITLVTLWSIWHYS", "assay": "serotonin 5-HT3 binding assay (NovaScreen), NIE-115 cells", "conditions": "25° C., 60 minutes", "method": "Binding affinity of a variety of compounds, including Cm.A, for the 5-HT3 receptor was investigated using a commercially available serotonin 5-HT3 binding assay (NovaScreen, Hanover, Md.). The receptor source was NIE-115 cells (See Lunnis, S. C. R. and Kilparick, G. J., 189: Evr. Jrnl. Pharmacol. 223 (1990); and Hoyer, D. and Heijt, H. C., 33 Mol. Pharmacol., 303 (1988)). The reference compound utilized was “MDL 72222,” a 5-HT3 receptor antagonist. Reactions were carried out in 20 mM HEPES (pH 7.4) containing 150 mM NaCl at 25° C. for 60 minutes. The reaction was terminated by rapid vacuum filtration onto glass fiber filters. Radioactivity trapped onto the filters was determined and compared with the control values."}, "healthy volunteers": {"system": "healthy volunteers", "assay": "Human Phase IA single-dose, dose-escalation clinical trial", "format": "in vivo", "conditions": "single oral dose 2 mg to 180 mg", "method": "A Phase IA clinical trial was conducted as a single-dose, double-blind, placebo-controlled, dose-escalation study. This study investigated the safety and pharmacokinetic profile of the particularly preferred salt (depicted in FIG. 1B; N-[2-( 1-benzylpiperizin-4-yl)ethyl]-2,3-dihydro-9-methoxy-1H-pyrrolo[3,4-b]quinolin-1-one hemifumarate) of the compound of FIG. 1A, N-[2-(1-benzylpiperzin-4-yl)ethyl]-2,3-dihydro-9-methoxy-1H-pyrrolo[3,4-b] quinolin-1-one. The compound was administered orally in doses from 2 mg to 180 mg to healthy volunteers (male and female), aged 50-75 years, under fasting conditions. A total of 68 individuals were enrolled in the study and completed the trial. A maximum tolerated dose was not identified in this study, i. e., even at 180 mg, there were insufficient adverse events to establish a true “maximum tolerated dose” in this study."}, "BF-lesioned rats [1]": {"system": "BF-lesioned rats", "assay": "Water maze, BF lesion-induced deficit in spatial learning", "conditions": "oral; Cm.A 0.3, 1.0 and 3.0 mg/kg/day, THA 1.0 mg/kg/day, E2020 0.3 and 1.0 mg/kg/day", "description": "For each training trial, the rat was placed in the water (22° C.) such that the animal faced the wall of a circular pool (150 cm in diameter, 45 cm in height), and started at one of five starting points (selected randornly). In each trial, the latency period to escape onto the hidden platform (fixed in the middle of one quadrant, 2 cm below the surface of water) was recorded. These procedures were repeated once or twice a day during the experimental period."}, "BF-lesioned rats [2]": {"system": "BF-lesioned rats", "assay": "Passive avoidance, basal forebrain (BF) lesion-induced memory impairment", "description": "Using male Wistar rats, passive-avoidance studies were conducted using a step through-type, 2 compartment (light and dark) box. In the acquisition trial, at the time when the animal entered the dark area, a guillotine door was closed and an electric shock (0.5˜0.8 mA for 3 seconds) was delivered to the animal. After 24 hours, the retention trial was conducted: the rat was put in the light area and the time until the animal entered the dark area (latency) was measured. Cutoff latency was set at 600 seconds. Test substances were orally administered 30 minutes before the acquisition trial.\nAfter 2 weeks, the acquisition trial was conducted."}}, "note": "Like-named read-outs stand apart in the source and are kept apart here."}
{"compound": "COc1c2c(nc3ccccc13)CN(CCC1CCN(Cc3ccccc3)CC1)C2=O", "note": "[Cm.A, 2-[2-(1-benzylpiperizin-4-yl)ethyl]-2,3-dihydro-9-methoxy-1H-pyrrolo[3,4-b]quinolin-1-one hemifumarate]", "values": [{"measurement": "Blood biochemistry", "setting": "Cynomologous monkeys; F, four weeks", "result": "↑: TG"}, {"measurement": "Clinical signs softstool", "setting": "Cynomologous monkeys; F, four weeks", "result": "±"}, {"measurement": "Food consumption", "setting": "Cynomologous monkeys; F, four weeks", "result": "−"}, {"measurement": "Clinical signs vomiting", "setting": "Cynomologous monkeys; F", "result": "−"}, {"measurement": "Blood biochemistry", "setting": "Cynomologous monkeys; M, four weeks", "result": "↑: TG"}, {"measurement": "Clinical signs softstool", "setting": "Cynomologous monkeys; M, four weeks", "result": "−"}, {"measurement": "Food consumption", "setting": "Cynomologous monkeys; M, four weeks", "result": "−"}, {"measurement": "Clinical signs vomiting", "setting": "Cynomologous monkeys; M", "result": "−"}, {"measurement": "blood biochemical tests", "setting": "Cynomologous monkeys; four weeks", "result": "small increase in TG"}, {"measurement": "clinical signs", "setting": "Cynomologous monkeys; four weeks", "result": "minimal adverse clinical signs"}, {"measurement": "food consumption and body weight", "setting": "Cynomologous monkeys; four weeks", "result": "no remarkable change in food consumption and body weight"}, {"measurement": "AChE activity Frontal cortex", "setting": "AChE; 1 mg/kg p.o.", "result": 48.1, "unit": "nmol/min/mg protein"}, {"measurement": "AChE activity Hippocampus", "setting": "AChE; 1 mg/kg p.o.", "result": "37.6 ± 0.8", "unit": "nmol/min/mg protein"}, {"measurement": "AChE activity Parietal cortex", "setting": "AChE; 1 mg/kg p.o.", "result": "27.3 ± 0.5", "unit": "nmol/min/mg protein"}, {"measurement": "AChE activity Striatim", "setting": "AChE; 1 mg/kg p.o.", "result": 238.9, "unit": "nmol/min/mg protein"}, {"measurement": "AChE activity Frontal cortex", "setting": "AChE; 3 mg/kg p.o.", "result": 56, "unit": "nmol/min/mg protein"}, {"measurement": "AChE activity Hippocampus", "setting": "AChE; 3 mg/kg p.o.", "result": "42.1 ± 1.3", "unit": "nmol/min/mg protein"}, {"measurement": "AChE activity Parietal cortex", "setting": "AChE; 3 mg/kg p.o.", "result": "31.3 ± 1.6", "unit": "nmol/min/mg protein"}, {"measurement": "AChE activity Striatim", "setting": "AChE; 3 mg/kg p.o.", "result": 219.9, "unit": "nmol/min/mg protein"}, {"measurement": "AChE activity Frontal cortex", "setting": "AChE; 10 mg/kg p.o.", "result": 58.4, "unit": "nmol/min/mg protein"}, {"measurement": "AChE activity Hippocampus", "setting": "AChE; 10 mg/kg p.o.", "result": "48.3 ± 2.9", "unit": "nmol/min/mg protein"}, {"measurement": "AChE activity Parietal cortex", "setting": "AChE; 10 mg/kg p.o.", "result": "32.6 ± 1.7", "unit": "nmol/min/mg protein"}, {"measurement": "AChE activity Striatim", "setting": "AChE; 10 mg/kg p.o.", "result": 274.0, "unit": "nmol/min/mg protein"}, {"measurement": "inhibition of AChE activity (text on Table 3)", "setting": "AChE; p.o.", "result": "inhibition of AChE in a nondose dependent manner"}, {"measurement": "IC50", "setting": "5-HT3 receptor; IC50, 20 mM HEPES pH 7.4, 150 mM NaCl", "result": 1.18, "unit": "µM"}, {"measurement": "Ki", "setting": "5-HT3 receptor; Ki, 20 mM HEPES pH 7.4, 150 mM NaCl", "result": 0.552, "unit": "µM"}, {"measurement": "safety parameters (vital signs, ECG, blood chemistry, hematology, urinalysis, physical examination)", "setting": "healthy volunteers", "result": "no clinically significant changes"}, {"measurement": "serious adverse events", "setting": "healthy volunteers", "result": "no serious adverse events reported"}, {"measurement": "maximum tolerated dose", "setting": "healthy volunteers; fasting, aged 50-75 years", "result": "> 180", "unit": "mg"}, {"measurement": "mild adverse events", "setting": "healthy volunteers; 68 individuals enrolled", "result": "seven mild adverse events"}, {"measurement": "deficit of spatial learning (escape latency)", "setting": "BF-lesioned rats [1]", "result": "improved the deficit of spatial learning"}, {"measurement": "memory deficit induced by BF-lesion, repeated doses", "setting": "BF-lesioned rats [2]; 0.03~0.3 mg/kg/day for 1 week", "result": "improvement in recovery as potently as or more potently than THA and E2020"}, {"measurement": "memory deficit induced by BF-lesion, single dose", "setting": "BF-lesioned rats [2]; single dose 0.03~1.0 mg/kg", "result": "partially, but significantly, recovered the memory deficit"}]}
